This is an account of results in ChEMBL document CHEMBL1143016, “Scutiaquinones A and B, perylenequinones from the roots of Scutia myrtina with anthelmintic activity” (J Nat Prod, 2007).

The test system of series [1] is Heligmosomoides polygyrus. The series is described as follows: Anthelmintic activity against Heligmosomoides polygyrus infected Swiss-Webster mouse assessed as reduction of worm counts at 25 mg/kg, im. The class given is functional, organism-based. Also on record: dose 25 mg/kg.
A further series concerns Haemonchus contortus. The series is described as follows: Anthelmintic activity against Haemonchus contortus assessed as reduction in L3 larval motility. It is filed as functional.
The subject of a further series is Mus musculus. The series is described as follows: Toxicity in Swiss-Webster mouse at 50 mg/kg, im. It is filed as organism-based. Set-up: dose 50 mg/kg, route intramuscular. Conditions: in vivo.
Series [2] concerns Heligmosomoides polygyrus. The series is described as follows: Anthelmintic activity against Heligmosomoides polygyrus infected Swiss-Webster mouse assessed as reduction of worm counts at 30 mg/kg, im. It is filed as functional, organism-based. Also on record: dose 30 mg/kg.

Each structure is given as a SMILES string. Values after ≈ are worked out from the molar mass of the structure shown. Active and inactive are the calls of the source. The calls are words filed in the database; no cut-off is given here.

As a reminder, the EC90 is the point of the concentration-response curve where the effect stands at 90%. `Cc1cc2c3cc(C)c(O)c4c(=O)c5c(c(c6c7c(c(=O)c(c1O)c26)[C@@H](C)O[C@@H](C)C7)c43)C[C@H](C)O[C@@H]5C` [SCUTIAQUINONE A]: the result in series [1] was inactive. For the same compound, in the series on Haemonchus contortus, the 90% effect concentration (EC90) turned out to be 9.3 µg/mL (≈ 18.2 µM).

Regarding `Cc1cc2c3c4c(c(O)c5c(=O)c(C)cc(c6c7c(c(=O)c(c1O)c26)[C@@H](C)O[C@@H](C)C7)c53)[C@@H](C)O[C@@H](C)C4` [SCUTIAQUINONE B], in the series on Mus musculus, the Activity result is listed as “Toxic”. The outcome in series [2] was inactive. The EC90 in the series with Haemonchus contortus turned out to be 10.3 µg/mL (≈ 20.2 µM).
